Legend:
Type in all cases: binding
KRAS G12D = target: T1, KRAS G12D (Homo sapiens, UniProt P01116, G12D); test: HTRF assay, interaction of KRAS G12D with SOS1; conditions: Ras::SOS1 interaction, read-out: Inhibition of KRAS G12D (IC50)
T1 construct: made in house; host or cells: E. coli, e.g. BL21 (DE3)
Source text: (§1) This assay can be also used to assess a selective inhibition or reduction of signaling output of a mutant Ras protein relative to a wildtype, or relative to a different mutant Ras protein. For example, the equilibrium interaction of wildtype Kras or K-Ras mutant (e.g., wildtype or a mutant thereof) with SOS1 (e.g., hSOS1) can be assessed as a proxy or an indication for a subject compound's ability to bind and inhibit Ras protein. The HTRF assay detects from (i) a fluorescence resonance energy transfer (FRET) donor (e.g., antiGST-Europium) that is bound to GST-tagged K-Ras mutant to (ii) a FRET acceptor (e.g., anti-6His-XL665) bound to a His-tagged hSOS1.
(§2) The assay buffer can contain ˜5 mM HEPES pH 7.4, ˜150 mM NaCl, ˜ 1 mM DTT, 0.05% BSA and 0.0025% (v/v) Igepal. A Ras working solution is prepared in an assay buffer containing typically a suitable amount of the protein construct (e.g., GST-tagged K-Ras mutant) and the FRET donor (e.g., antiGST-Eu(K) from Cisbio, France). A SOS1 working solution is prepared in an assay buffer containing suitable amount of the protein construct (e.g., His-hSOS1) and the FRET acceptor (e.g., anti-6His-XL665 from Cisbio, France). A suitable amount of the protein construct will depend on the range of activity or range of IC50 values being detected or under investigation. For detecting an IC50 within a range of 500 nM, the protein constructs of the same range of molarity can be utilized.
(§3) A fixed volume of DMSO with or without test compound is transferred into a 384-well plate. Ras working solution is added to all wells of the test plate. SOS1 working solution is added to all wells except for those that are subsequently filled with inhibitor control solution. Upon incubation for about 10 minutes or longer, the fluorescence is measured with a M1000Pro plate reader (Tecan) using HTRF detection (excitation 337 nm, emission 1: 620 nm, emission 2: 665 nm). Compounds are tested in duplicate at different concentrations (for example, 10 μM, 2.5 μM, 0.63 μM, 0.16 μM, 0.04 μM, 0.01 μM test compound). The ratiometric data (i.e., emission 2 divided by emission 1) is used to calculate IC50 values against Ras using GraphPad Prism (GraphPad software). Signaling output measured in terms of IC50 values can be obtained and a ratio of IC50 against one mutant relative to another mutant can be calculated. For instance, a selective reduction of K-Ras G12D signaling output can be evidenced by a ratio greater than one. In particular, a selective reduction of K-Ras G12D signaling relative to K-Ras WT signaling is evidenced if the ratio of IC50 (against K-Ras WT) to IC50 (against K-Ras G12D) is greater than 1.

wildtype KRAS = target: T2, wildtype KRAS (Homo sapiens, UniProt P01116); test: HTRF assay, interaction of wildtype KRAS with SOS1; conditions: Ras::SOS1 interaction, read-out: Inhibition of KRAS WT (IC50)
T2 construct: made in house; host or cells: E. coli, e.g. BL21 (DE3)
Source text: as §1, §2, §3

KRAS G12V = target: T3, KRAS G12V (Homo sapiens, UniProt P01116, G12V); test: HTRF assay, interaction of KRAS G12V with SOS1; conditions: Ras::SOS1 interaction, read-out: Inhibition of KRAS G12V (IC50)
T3 construct: made in house; host or cells: E. coli, e.g. BL21 (DE3)
Source text: as §1, §2, §3

Measured: IC50

T2 sequence (P01116 1-188 isoform P01116-2): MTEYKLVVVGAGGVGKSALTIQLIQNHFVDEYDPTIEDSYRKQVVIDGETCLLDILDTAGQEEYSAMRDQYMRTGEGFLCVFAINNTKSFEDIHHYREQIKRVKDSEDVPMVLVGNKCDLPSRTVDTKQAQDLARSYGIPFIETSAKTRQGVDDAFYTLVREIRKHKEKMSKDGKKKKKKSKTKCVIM
T3 sequence (P01116 1-188 isoform P01116-2 G12V): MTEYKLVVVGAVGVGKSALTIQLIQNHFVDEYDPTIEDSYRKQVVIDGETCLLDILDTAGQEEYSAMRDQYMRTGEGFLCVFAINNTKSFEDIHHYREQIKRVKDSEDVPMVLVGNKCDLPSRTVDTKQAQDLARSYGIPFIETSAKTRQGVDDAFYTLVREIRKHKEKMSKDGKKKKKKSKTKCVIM
T1 sequence (P01116 1-188 isoform P01116-2 G12D): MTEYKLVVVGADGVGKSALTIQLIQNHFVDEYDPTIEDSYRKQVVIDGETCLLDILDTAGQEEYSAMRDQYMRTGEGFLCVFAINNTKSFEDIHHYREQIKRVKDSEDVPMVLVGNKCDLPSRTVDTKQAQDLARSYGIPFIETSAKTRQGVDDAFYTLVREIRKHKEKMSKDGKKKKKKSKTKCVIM

CNCC1CCCCCCN2CCOc3c(Cl)c(-c4ccc(F)c5sc(N)c(C#N)c45)c(F)c4nc(nc2c34)O1 (stereo not drawn) [Compound 157, 2-amino-4-(15-chloro-17-fluoro-4-((methylamino)methyl)-5,6,7,8,9,10,12,13-octahydro-4H-2,18-(azeno)benzo[6,7][1,4]oxazepino[5,4-d][1]oxa[3,5]diazacyclododecin-16-yl)-7-fluorobenzo[b]thiophene-3-carbonitrile]
≤ 5 µM: all assays above

CN(C)CCC1CC=CCCN2CCOc3c(Cl)c(-c4ccc(F)c5sc(N)c(C#N)c45)c(F)c4nc(nc2c34)O1 (single isomer, unassigned) [Compound 148, 2-amino-4-(14-chloro-4-(2-(dimethylamino)ethyl)-16-fluoro-4,5,8,9,11,12-hexahydro-2,17-(azeno)benzo[6,7][1,4]oxazepino[5,4-d][1]oxa[3,5]diazacycloundecin-15-yl)-7-fluorobenzo[b]thiophene-3-carbonitrile]
≤ 5 µM: all assays above

CN(C)C[C@H]1CCNC(=O)CCN2CCOc3c(Cl)c(-c4ccc(F)c5sc(N)c(C#N)c45)c(F)c4nc(nc2c34)O1 [Compound 123, 2-amino-4-((4R)-15-chloro-4-((dimethylamino)methyl)-17-fluoro-8-oxo-5,6,7,8,9,10,12,13-octahydro-4H-2,18-(azeno)benzo[6,7][1,4]oxazepino[5,4-d][1]oxa[3,5,9]triazacyclododecin-16-yl)-7-fluorobenzo[b]thiophene-3-carbonitrile]
≤ 5 µM: all assays above

CN(C)CC1CCNC(=O)CN2CCOc3c(Cl)c(-c4ccc(F)c5sc(N)c(C#N)c45)c(F)c4nc(nc2c34)O1 (stereo not drawn) [Compound 158, 2-amino-4-(14-chloro-4-((dimethylamino)methyl)-16-fluoro-8-oxo-4,5,6,7,8,9,11,12-octahydro-2,17-(azeno)benzo[6,7][1,4]oxazepino[5,4-d][1]oxa[3,5,8]triazacycloundecin-15-yl)-7-fluorobenzo[b]thiophene-3-carbonitrile]
≤ 5 µM: all assays above

CNCCC1CC=CCCN2CCOc3c(Cl)c(-c4ccc(F)c5sc(N)c(C#N)c45)c(F)c4nc(nc2c34)O1 (stereo not drawn) [Compound 130, 2-amino-4-(14-chloro-16-fluoro-4-(2-(methylamino)ethyl)-4,5,8,9,11,12-hexahydro-2,17-(azeno)benzo[6,7][1,4]oxazepino[5,4-d][1]oxa[3,5]diazacycloundecin-15-yl)-7-fluorobenzo[b]thiophene-3-carbonitrile]
≤ 5 µM: all assays above

CN1C[C@@H]2C[C@H]1COc1nc3c4c(c(Cl)c(-c5ccc(F)c6sc(N)c(C#N)c56)c(F)c4n1)OCCN3CCCO2 (single isomer, unassigned) [Compound 135]
≤ 5 µM: all assays above

CN1CCC[C@H]1C1CCCCCCN2CCOc3c(Cl)c(-c4ccc(F)c5sc(N)c(C#N)c45)c(F)c4nc(nc2c34)O1 (stereo partly drawn) [Compound 138, 2-amino-4-(15-chloro-17-fluoro-4-((S)-1-methylpyrrolidin-2-yl)-5,6,7,8,9,10,12,13-octahydro-4H-2,18-(azeno)benzo[6,7][1,4]oxazepino[5,4-d][1]oxa[3,5]diazacyclododecin-16-yl)-7-fluorobenzo[b]thiophene-3-carbonitrile]
≤ 5 µM: all assays above

CN(C)CC1CC/C=C/CCN2CCOc3c(Cl)c(-c4ccc(F)c5sc(N)c(C#N)c45)c(F)c4nc(nc2c34)O1 (stereo not drawn) [Compound 101, (E)-2-amino-4-(15-chloro-4-((dimethylamino)methyl)-17-fluoro-5,6,9,10,12,13-hexahydro-4H-2,18-(azeno)benzo[6,7][1,4]oxazepino[5,4-d][1]oxa[3,5]diazacyclododecin-16-yl)-7-fluorobenzo[b]thiophene-3-carbonitrile]
≤ 5 µM: all assays above

CN1CCCCCCN2CCOc3c(Cl)c(-c4ccc(F)c5sc(N)c(C#N)c45)c(F)c4nc(nc2c34)OCCC1 [Compound 153, 2-amino-4-(18-chloro-20-fluoro-7-methyl-4,5,6,7,8,9,10,11,12,13,15,16-dodecahydro-2,21-(azeno)benzo[6,7][1,4]oxazepino[5,4-d][1]oxa[3,5,12]triazacyclopentadecin-19-yl)-7-fluorobenzo[b]thiophene-3-carbonitrile]
≤ 5 µM: all assays above

N#Cc1c(N)sc2c(F)ccc(-c3c(Cl)c4c5c6nc(nc5c3F)OCCNC(=O)CCN6CCO4)c12 [Compound 112, 2-amino-4-(14-chloro-16-fluoro-7-oxo-4,5,6,7,8,9,11,12-octahydro-2,17-(azeno)benzo[6,7][1,4]oxazepino[5,4-d][1]oxa[3,5,9]triazacycloundecin-15-yl)-7-fluorobenzo[b]thiophene-3-carbonitrile]
≤ 5 µM: all assays above

CN(C)[C@@H]1CNC(=O)CCN2CCOc3c(Cl)c(-c4ccc(F)c5sc(N)c(C#N)c45)c(F)c4nc(nc2c34)OC1 [Compound 104, 2-amino-4-((5R)-15-chloro-5-(dimethylamino)-17-fluoro-8-oxo-5,6,7,8,9,10,12,13-octahydro-4H-2,18-(azeno)benzo[6,7][1,4]oxazepino[5,4-d][1]oxa[3,5,9]triazacyclododecin-16-yl)-7-fluorobenzo[b]thiophene-3-carbonitrile]
≤ 5 µM: all assays above

CN1CCC[C@H]1[C@@H]1CC/C=C\CCN2CCOc3c(Cl)c(-c4ccc(F)c5sc(N)c(C#N)c45)c(F)c4nc(nc2c34)O1 [Compound 159, 2-amino-4-((4S,Z)-15-chloro-17-fluoro-4-((S)-1-methylpyrrolidin-2-yl)-5,6,9,10,12,13-hexahydro-4H-2,18-(azeno)benzo[6,7][1,4]oxazepino[5,4-d][1]oxa[3,5]diazacyclododecin-16-yl)-7-fluorobenzo[b]thiophene-3-carbonitrile]
≤ 5 µM: all assays above
